Measured values from paper PMC10657792, “Downstream Allosteric Modulation of NMDA Receptors by 3-Benzazepine Derivatives” (Molecular Neurobiology, 2023).
Values joined by “and” are separate entries in the source; they are usually repeats but may differ in a detail not shown here. Equal values may be shown once.

Columns and labels:
GluN2B subunits = settings: cited from earlier work
GluN2B = system: GluN2B; set-up: method as in PMID 35710735; settings: PET, non-human primates; cited from earlier work
GluN1a wt/ GluN2B F114A = GluN1a wt/ GluN2B F114A (Rattus norvegicus, UniProt P35439+Q00960, F114A); test: TEVC recording in X. laevis oocytes, GluN2B mutant screening; assay type: cell-based; settings: GluN1-1a/F114A, individual oocytes
GluN1a wt/ GluN2B E236A = GluN1a wt/ GluN2B E236A (Rattus norvegicus, UniProt P35439+Q00960, E236A); test: as above; assay type: cell-based; settings: GluN1-1a/E236A, individual oocytes
Sequence of GluN1a wt/ GluN2B E236A (Q00960 27-1482 E236A, other chains not shown): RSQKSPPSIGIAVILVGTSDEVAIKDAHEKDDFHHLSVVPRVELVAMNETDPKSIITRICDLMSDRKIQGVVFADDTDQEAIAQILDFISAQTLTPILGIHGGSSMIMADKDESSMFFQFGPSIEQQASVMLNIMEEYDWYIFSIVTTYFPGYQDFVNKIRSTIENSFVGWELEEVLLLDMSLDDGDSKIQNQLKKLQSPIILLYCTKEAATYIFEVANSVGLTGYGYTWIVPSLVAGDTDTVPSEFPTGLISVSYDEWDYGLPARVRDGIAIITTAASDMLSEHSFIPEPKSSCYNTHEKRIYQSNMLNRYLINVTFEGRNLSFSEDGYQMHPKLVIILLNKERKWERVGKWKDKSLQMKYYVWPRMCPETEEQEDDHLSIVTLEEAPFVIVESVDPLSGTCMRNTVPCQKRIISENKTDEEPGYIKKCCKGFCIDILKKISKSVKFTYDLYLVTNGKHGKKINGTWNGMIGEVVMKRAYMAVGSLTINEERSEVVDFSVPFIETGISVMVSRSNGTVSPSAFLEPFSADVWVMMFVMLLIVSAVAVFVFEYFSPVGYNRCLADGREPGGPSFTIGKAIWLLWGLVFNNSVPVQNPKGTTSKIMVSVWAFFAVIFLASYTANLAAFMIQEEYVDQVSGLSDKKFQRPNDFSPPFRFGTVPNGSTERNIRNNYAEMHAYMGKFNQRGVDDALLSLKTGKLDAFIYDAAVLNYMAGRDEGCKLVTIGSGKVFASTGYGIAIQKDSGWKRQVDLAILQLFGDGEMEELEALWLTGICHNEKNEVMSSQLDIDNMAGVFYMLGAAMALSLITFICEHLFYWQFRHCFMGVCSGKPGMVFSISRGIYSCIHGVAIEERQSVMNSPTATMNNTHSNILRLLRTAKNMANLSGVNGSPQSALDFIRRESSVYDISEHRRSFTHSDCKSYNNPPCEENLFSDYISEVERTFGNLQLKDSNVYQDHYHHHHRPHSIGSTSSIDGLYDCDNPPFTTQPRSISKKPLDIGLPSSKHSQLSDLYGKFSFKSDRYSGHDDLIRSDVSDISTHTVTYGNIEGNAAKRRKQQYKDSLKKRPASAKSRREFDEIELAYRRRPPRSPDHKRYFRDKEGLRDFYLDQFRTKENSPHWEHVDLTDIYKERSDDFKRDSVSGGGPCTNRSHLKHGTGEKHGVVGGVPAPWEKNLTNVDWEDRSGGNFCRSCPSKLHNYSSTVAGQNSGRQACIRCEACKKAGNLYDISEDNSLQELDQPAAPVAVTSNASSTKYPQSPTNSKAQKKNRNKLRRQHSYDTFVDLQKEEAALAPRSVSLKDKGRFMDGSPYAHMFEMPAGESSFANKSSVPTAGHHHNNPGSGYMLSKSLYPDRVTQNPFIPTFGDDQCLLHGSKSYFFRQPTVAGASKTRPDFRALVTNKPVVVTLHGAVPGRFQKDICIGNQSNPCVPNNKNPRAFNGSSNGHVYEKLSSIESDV

GluN1a wt/ GluN2B wt = GluN1a wt/ GluN2B wt (Rattus norvegicus, UniProt P35439+Q00960); test: Ligand binding assay with [3H]ifenprodil, membranes of transfected HEK cells; settings: 5 nM radioligand, non-specific binding with 10 µM unlabeled ifenprodil, 37 °C; single replicate
Sequence of GluN1a wt/ GluN2B wt (Q00960 27-1482, other chains not shown): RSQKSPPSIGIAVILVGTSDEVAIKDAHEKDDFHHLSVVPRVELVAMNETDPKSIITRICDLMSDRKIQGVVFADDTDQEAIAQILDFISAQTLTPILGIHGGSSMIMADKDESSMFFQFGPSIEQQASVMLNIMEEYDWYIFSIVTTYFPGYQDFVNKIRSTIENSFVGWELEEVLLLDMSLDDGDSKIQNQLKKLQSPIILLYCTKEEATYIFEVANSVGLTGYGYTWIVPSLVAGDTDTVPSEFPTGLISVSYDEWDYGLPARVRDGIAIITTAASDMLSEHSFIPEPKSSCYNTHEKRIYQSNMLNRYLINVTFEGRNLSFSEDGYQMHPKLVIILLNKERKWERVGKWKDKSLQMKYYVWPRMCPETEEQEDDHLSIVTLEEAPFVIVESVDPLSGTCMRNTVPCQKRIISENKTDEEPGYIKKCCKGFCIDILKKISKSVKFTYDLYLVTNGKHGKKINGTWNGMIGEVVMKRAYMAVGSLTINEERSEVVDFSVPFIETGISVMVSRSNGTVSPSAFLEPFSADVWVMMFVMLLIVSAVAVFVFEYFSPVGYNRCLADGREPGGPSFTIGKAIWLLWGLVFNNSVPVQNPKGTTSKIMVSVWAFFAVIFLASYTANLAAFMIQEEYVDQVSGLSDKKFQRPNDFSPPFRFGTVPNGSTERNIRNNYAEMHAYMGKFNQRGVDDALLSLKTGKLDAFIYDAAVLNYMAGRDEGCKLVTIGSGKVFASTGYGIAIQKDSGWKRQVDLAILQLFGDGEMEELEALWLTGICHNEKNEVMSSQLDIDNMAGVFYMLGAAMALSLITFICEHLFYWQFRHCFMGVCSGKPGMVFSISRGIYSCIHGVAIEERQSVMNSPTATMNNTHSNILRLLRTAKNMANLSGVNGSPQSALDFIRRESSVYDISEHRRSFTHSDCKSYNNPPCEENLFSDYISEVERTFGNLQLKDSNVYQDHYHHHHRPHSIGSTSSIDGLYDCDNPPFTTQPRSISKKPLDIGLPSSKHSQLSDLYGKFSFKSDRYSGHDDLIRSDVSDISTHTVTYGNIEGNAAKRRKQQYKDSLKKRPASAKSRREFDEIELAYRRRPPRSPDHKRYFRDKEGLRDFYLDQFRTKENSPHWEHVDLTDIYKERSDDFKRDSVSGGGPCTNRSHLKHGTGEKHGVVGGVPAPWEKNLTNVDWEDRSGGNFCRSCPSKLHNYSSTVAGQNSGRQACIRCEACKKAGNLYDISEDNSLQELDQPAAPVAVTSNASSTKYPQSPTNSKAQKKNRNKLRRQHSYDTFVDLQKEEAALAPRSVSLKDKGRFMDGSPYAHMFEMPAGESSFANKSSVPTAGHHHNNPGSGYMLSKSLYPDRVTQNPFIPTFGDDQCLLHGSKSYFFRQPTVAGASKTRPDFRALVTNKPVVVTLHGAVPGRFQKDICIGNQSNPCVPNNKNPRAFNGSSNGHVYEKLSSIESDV
Experimental: (§1) One day prior to transfection, human embryonic kidney (HEK) cells were reseeded into T75 flasks, aiming for a confluency of 70% after 24 h. HEK cells were then transiently co-transfected with the cDNAs (GluN1-1a/ eGFP, GluN1-1b/eGFP, GluN2B/pDsRed2-N1, GluN2B F176A/pDsRed2-N1, and GluN2B F194A/pDsRed2-N1) encoding the NMDAR subunits using Lipofectamine 3000 (Thermo Fisher Scientific, Germany) according to the manufacturer’s instructions. Approximately 60 h after transfection, the cells were resuspended in Dulbecco’s phosphate-buffered saline (PBS), and the positively double transfected cells were sorted using fluorescence-activated cell sorting (FACS). The membrane preparation, the protein yield determination, and ligand binding assay were performed as previously described. Briefly, the affinity for NMDAR was evaluated using a receptor binding assay, in which racemic […] (60 Ci/mmol; BIOTREND, Cologne, Germany), served as radioligand. The membrane fragments of NMDAR expressing HEK cells were incubated with 5 nM [^3H]ifenprodil and TRIS/EDTA-buffer (5 mM TRIS/1 mM EDTA, pH 7.5) at 37 °C. To evaluate the unspecific binding, 10 µM unlabeled ifenprodil was used.

GluN1b wt/ GluN2B F176A = GluN1b wt/ GluN2B F176A (Rattus norvegicus, UniProt P35439+Q00960, F176A); test: as above; settings: 5 nM radioligand, non-specific binding with 10 µM unlabeled ifenprodil, 37 °C; single replicate
Experimental: as §1

GluN1b wt/ GluN2B F194A = GluN1b wt/ GluN2B F194A (Rattus norvegicus, UniProt P35439+Q00960, F194A); test: as above; settings: 5 nM radioligand, non-specific binding with 10 µM unlabeled ifenprodil, 37 °C; single replicate
Experimental: as §1

GluN1a wt/ GluN2B F194A = GluN1a wt/ GluN2B F194A (Rattus norvegicus, UniProt P35439+Q00960, F194A); test: as above; settings: 5 nM radioligand, non-specific binding with 10 µM unlabeled ifenprodil, 37 °C; single replicate
Experimental: as §1

GluN1b wt/ GluN2B wt = GluN1b wt/ GluN2B wt (Rattus norvegicus, UniProt P35439+Q00960); test: as above; settings: 5 nM radioligand, non-specific binding with 10 µM unlabeled ifenprodil, 37 °C; single replicate
Sequence of GluN1b wt/ GluN2B wt (Q00960 27-1482, other chains not shown): as above
Experimental: as §1

GluN1a wt/ GluN2B F176A = GluN1a wt/ GluN2B F176A (Rattus norvegicus, UniProt P35439+Q00960, F176A); test: as above; settings: 5 nM radioligand, non-specific binding with 10 µM unlabeled ifenprodil, 37 °C; single replicate
Experimental: as §1

[1] = compound concentration 0.1 μM, 0.1 µM
[2] = compound concentration 1 μM, 1 µM
[3] = compound concentration 10 μM, 10 µM
[4] = compound concentration 30 μM, 30 µM

In the case of `Oc1ccc2c(c1)CCN(CCCCc1ccccc1[18F])CC2O` (racemic) [^18F-OF-NB1], the “blood–brain barrier permeability” value (GluN2B subunits) is given as “high” and the cerebellar accumulation (GluN2B subunits; ex vivo biodistribution assays) is given as “high cerebellar accumulation”.

In the case of `Oc1ccc2c(c1)CCN(CCCCc1ccccc1[18F])C[C@@H]2O` [(R)-^18F-OF-NB1], the “affinity in vivo relative to the S-enantiomer” value (GluN2B) is listed as “four- to five-fold higher”, the cingulate cortex accumulation (GluN2B) is listed as “high cingulate cortex accumulation” and the uptake (GluN2B) is listed as “high uptake”. The washout kinetics (GluN2B) was “slow washout kinetics”.

With `Oc1ccc2c(c1)CCN(CCCCc1ccccc1F)C[C@@H]2O` [OF-NB1 R] the “inhibition (%)” value (GluN1a wt/ GluN2B F114A; [1]) was 0.07918% and 0.5179% and 0.211%, the “inhibition (%)” value (GluN1a wt/ GluN2B F114A; [2]) was 29.9386% and 5.971% and 22.998% and 16.9662% and the “inhibition (%)” value (GluN1a wt/ GluN2B F114A; [3]) was 58.532% and 61.9095% and 61.1489% and 64.1685%. For the same molecule, the “inhibition (%)” value (GluN1a wt/ GluN2B F114A; [4]) was 87.8657% and 75.6136% and 78.22% and 87.6368%, the “inhibition (%)” value (GluN1a wt/ GluN2B E236A; compound concentration 0.001 μM, 0.001 µM) was 0.5349% and -0.3615% and 0.07864% and -0.02364% and -0.08675% and the “inhibition (%)” value (GluN1a wt/ GluN2B E236A; compound concentration 0.01 μM, 0.01 µM) was 2.174% and 5.182% and 1.1167% and -0.03546% and -0.1952%. The “inhibition (%)” value (GluN1a wt/ GluN2B E236A; [1]) was 22.83% and 11.3477% and 24.7562% and 0% and 0.08675%, the “inhibition (%)” value (GluN1a wt/ GluN2B E236A; [2]) was 62.3641% and 56.7584% and 57.7225% and 68.2307% and 52.0278% and the “inhibition (%)” value (GluN1a wt/ GluN2B E236A; [3]) was 74.0293% and 68.3069% and 74.5203% and 84.919% and 71.8716%. For the same molecule, the “inhibition (%)” value (GluN1a wt/ GluN2B E236A; [4]) was 82.623% and 76.0795% and 83.6584% and 89.363% and 81.8261%.

With `CC(C(O)c1ccc(O)cc1)N1CCC(Cc2ccccc2)CC1` (stereo not shown) [[^3H]ifenprodil, ifenprodil] the “specific binding (cpm)” value (GluN1a wt/ GluN2B wt) was 25.5 cpm and 9.5 cpm and 4.5 cpm, the “specific binding (cpm)” value (GluN1b wt/ GluN2B F176A) was -1.5 cpm and -2.5 cpm and 0.5 cpm and the “specific binding (cpm)” value (GluN1b wt/ GluN2B F194A) was -0.5 cpm and -1.5 cpm. For the same molecule, the “specific binding (cpm)” value (GluN1a wt/ GluN2B F194A) was 3.5 cpm and 2.5 cpm and -1.5 cpm, the “specific binding (cpm)” value (GluN1b wt/ GluN2B wt) was 4.5 cpm and 5.5 cpm and 11.5 cpm and the “specific binding (cpm)” value (GluN1a wt/ GluN2B F176A) was 4.5 cpm and 6.5 cpm.
